From patent publication US6864217B2, “Herbicidal compositions with substituted phenylsulfonylureas for controlling weeds in rice” (Hoechst Schering AgrEvo GmbH, priority 1998, dated 2005)
Where a name gives a salt, the structure may show the parent alone. Read-outs that look alike come from different tables or passages of the source.

Columns and labels:
Echinochloa crusgalli [1] = assay: Table 9 greenhouse trial, treatment at the 1-2 leaf stage: weed control; assay type: in vivo; conditions: 22 days after application
Protocol: (§1) Seeds or rhizome pieces of mono- and dicotyledonous weed plants are placed into sandy loam soil in plastic pots, covered with soil and grown in a greenhouse under good growth conditions (temperature, atmospheric humidity, water supply). Weeds which are encountered in the cultivation of rice are cultivated in pots in which the water level is up to 2 cm over the soil surface. Three weeks after sowing, the test plants are treated at the three-leaf stage. The active compound combinations according to the invention, formulated as wettable powders or emulsion concentrates, and, in parallel experiments, the correspondingly formulated individual active compounds are sprayed onto the green parts of the plants at different dosages using an amount of water of 300 to 600 l/ha (converted), and, after about 3 to 4 weeks of the test plants in the greenhouse under optimum growth conditions (temperature, atmospheric humidity, water supply), the effect of the preparations is evaluated visually in comparison to untreated controls. In the case of rice or weeds which are encountered in the cultivation of rice, the active compounds are also added directly to the water for irrigation (application analogous to the so-called granules application) or sprayed onto plants and added to the water for irrigation. The experiments were designed with several, up to five, repetitions. The herbicidal compositions according to the invention also have good herbicidal post-emergence activity against a broad spectrum of economically important weed grasses and broad-leaved weeds.
Greenhouse trial: Treatment at the 1-2 leaf stage, evaluation 22 days after the application.

Oryza sativa [2] = conditions: in vivo
Protocol: as §1, with “The herbicidal compositions according to the invention also have good herbicidal post-emergence activity against a broad spectrum of economically important weed grasses and broad-leaved weeds.” left out

Oryza sativa [3] = assay: Table 18 field trial, treatment at the 1-2 leaf stage: rice damage; assay type: in vivo; conditions: 14 days after application
From the text: Field trial: Treatment at the 1-2 leaf stage, evaluation 14 days after the application.

Echinochloa crusgalli [4] = assay: Table 4 field trial: weed control; assay type: in vivo
Protocol: (§3) The examples mentioned below were carried out in the greenhouse, and in some instances, in field trials.

Marsilea crenata = assay: Table 7 field trial, treatment at the 1-2 leaf stage: weed control; assay type: in vivo; conditions: 2 g of ai/ha, 28 days after application
Protocol: as §3

Commelina benghalensis = assay: Table 26 field trial, treatment at the 3 leaf stage: weed control; assay type: in vivo; conditions: 33 days after application
From the text: (§2) Field trial: Treatment at the 3 leaf stage, evaluation 33 days after the application.

Cyperus serotinus [5] = assay: Table 12 greenhouse trial, treatment at the 1-2 leaf stage: weed control; assay type: in vivo; conditions: 20 days after application
Protocol: as §1
Greenhouse trial: Treatment at the 1-2 leaf stage, evaluation 20 days after the application.

Cyperus serotinus [6] = assay: Table 19 field trial, treatment at the 2 leaf stage: weed control; assay type: in vivo; conditions: 14 days after application
From the text: Field trial: Treatment at the 2 leaf stage, evaluation 14 days after the application.

Oryza sativa [7] = assay: Table 26 field trial, treatment at the 3 leaf stage: rice damage; assay type: in vivo; conditions: 33 days after application
From the text: as §2

Cyperus irria = assay: Table 3 field trial, treatment at the 2 leaf stage weed grasses: weed control; assay type: in vivo; conditions: 28 days after application
Protocol: as §3

Oryza sativa [8] = assay: Table 2a field trial, treatment at the 1-2 leaf stage rice: rice damage; conditions: 28 days after application
Protocol: as §3

ECHCO = assay: Table 2 field trial, treatment at the 2-3 leaf stage weed grasses: weed control; assay type: in vivo, Echinochloa colona; conditions: 28 days after application
Protocol: as §3

COC(=O)c1ccc(I)cc1S(=O)(=O)NC(=O)Nc1nc(C)nc(OC)n1 [A1*), Sodium salt of methyl 4-iodo-2-[3-(4-methoxy-6-methyl-1,3,5-triazin-2-yl)ureidosulfonyl]benzoate]
ECHCG % control (Echinochloa crusgalli [1]; 1.5 g of ai/ha): 40% | ECHCG % control (Echinochloa crusgalli [1]; 3 g of ai/ha): 60% | ORYSW % damage (Oryza sativa [2]): 10% | ORYSW % damage (Oryza sativa [3]; 1 g of ai/ha): 7% | ORYSW % damage (Oryza sativa [3]; 2 g of ai/ha): 12% | ECHCG % control (Echinochloa crusgalli [4]; 1.25 g of ai/ha): 0% | ECHCG % control (Echinochloa crusgalli [4]; 2.5 g of ai/ha): 0% | ECHCG % control (Echinochloa crusgalli [4]; 5 g of ai/ha): 0% | MASCR % control (Marsilea crenata): 33% | COMBE % control (Commelina benghalensis; 2.5 g of ai/ha): 47% | COMBE % control (Commelina benghalensis; 5 g of ai/ha): 67% | CYPSE % control (Cyperus serotinus [5]; 1.5 g of ai/ha): 10% | CYPSE % control (Cyperus serotinus [5]; 3 g of ai/ha): 30% | CYPSE % control (Cyperus serotinus [6]; 1.5 g of ai/ha): 10% | CYPSE % control (Cyperus serotinus [6]; 3 g of ai/ha): 30% | ORYSW % damage (Oryza sativa [7]; 2.5 g of ai/ha): 0% | ORYSW % damage (Oryza sativa [7]; 5 g of ai/ha): 0% | CYPIR % control (Cyperus irria; 0.75 g of ai/ha): 40% | CYPIR % control (Cyperus irria; 1.5 g of ai/ha): 67% | CYPIR % control (Cyperus irria; 2.5 g of ai/ha): 87% | ORYSW % damage (Oryza sativa [8]; 1.25 g of ai/ha): 10% | ORYSW % damage (Oryza sativa [8]; 2.5 g of ai/ha): 25% | ORYSW % damage (Oryza sativa [8]; 5 g of ai/ha): 25% | ECHCO % control (ECHCO; 1.25 g of ai/ha): 0% | ECHCO % control (ECHCO; 2.5 g of ai/ha): 35% | ECHCO % control (ECHCO; 5 g of ai/ha): 37%
